This is an account of results in US12521393B2, “Cytotoxicity targeting chimeras for CCR2-expressing cells” (GLAXOSMITHKLINE INTELLECTUAL PROPERTY DEVELOPMENT LIMITED, priority 2021, dated 2026).

In experiment [1] the test system is endogenous target monocytes in human PBMC. Put plainly: PBMC ex vivo monocyte depletion flow cytometry assay (Example 200). The class given is cell-based. To be noted: with anti-cotinine antibody (SEQ ID NO: 11/12), 18-24 hours, EC50 in molar, read-out: Ex Vivo Depletion Assay pEC50 (converted). In outline: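 Monocyte depletion is reported as pEC50, averaged or given individually across runs, and read by flow cytometry staining CD45, CD14 and CD4 with a viability dye. Compounds, diluted four-fold over 11 points from 1 mM DMSO stocks, were combined with 30 μg/mL Fc-enhanced anti-cotinine antibody and human PBMC, then incubated 18-24 h at 37° C.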
(In general: Flow cytometry measures light scatter and fluorescence of single cells or particles in a stream.)

Experiment [2] addresses anti-cotinine antibody (SEQ ID NO: 11/12, rabbit variable region with human IgG1 Fc DE mutation). Put plainly: SPR binding of anti-cotinine antibody to ARM compounds, Biacore T200, 37° C. (Example 202). The following applies: SPR Biacore T200, 37° C., pH 7.4, antibody SEQ ID NO: 11/12 captured on protein A; Kd in molar. Summed up:
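Antibody captured on a protein A chip; ARM compounds injected at 100 μL/min (200 s association, 2000 s dissociation), 3-fold 5-point series from 200 nM, at 37 °C in HEPES pH 7.4 buffer with 0.005% P20 and 1% DMSO. Double-referenced sensorgrams fit 1:1 for kon, koff, Kd (koff/kon), residence time (1/koff); pKd averaged across runs.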
(In general: SPR reads the build-up and loss of mass on a sensor chip optically.)

For the compound `CC(C)N(C)[C@@H]1CC[C@H](N2CC[C@H](Nc3ncnc4ccc(C(F)(F)F)cc34)C2=O)[C@H](NC2CCN(C(=O)CCOCCOCCOCCOCCNC(=O)[C@H]3CC(=O)N(C)[C@@H]3c3cccnc3)CC2)C1` [Example 69, (2S,3S)-N-(15-(4-(((1R,2S,5R)-5-(Isopropyl(methyl)amino)-2-((S)-2-oxo-3-((6-(trifluoromethyl)quinazolin-4-yl)amino)pyrrolidin-1-yl)cyclohexyl)amino)piperidin-1-yl)-15-oxo-3,6,9,12-tetraoxapentadecyl)-1-methyl-5-oxo-2-(pyridin-3-yl)pyrrolidine-3-carboxamide], in experiment [1], the EC50 is 1580 pM. Further, the “pKd of Antibody for ARM Compound of Formula (I)” value (“pKd of Antibody” for short) in experiment [2] was determined as 9.321.
Turning to `CN1C(=O)C[C@H](C(=O)NCCOCCOCCOCCOCCOCCOCCC(=O)N[C@@H]2C[C@H](NC(C)(C)C)CC[C@@H]2N2CC[C@H](Nc3ncnc4ccc(C(F)(F)F)cc34)C2=O)[C@H]1c1cccnc1` [Example 38, (2S,3S)-N-(21-(((1R,2S,5R)-5-(tert-Butylamino)-2-((S)-2-oxo-3-((6-(trifluoromethyl)quinazolin-4-yl)amino)pyrrolidin-1-yl)cyclohexyl)amino)-21-oxo-3,6,9,12,15,18-hexaoxahenicosyl)-1-methyl-5-oxo-2-(pyridin-3-yl)pyrrolidine-3-carboxamide], the EC50 in experiment [1] was 1580 pM. Moreover, in experiment [2], the “pKd of Antibody” value is 9.611.
The matching figures for `CC(C)N(C)[C@@H]1CC[C@H](N2CC[C@H](Nc3ncnc4ccc(C(F)(F)F)cc34)C2=O)[C@H](NC(=O)[C@H]2CC[C@@H](NC(=O)CCCC(=O)NCCCOCCCNC(=O)[C@H]3CC(=O)N(C)[C@@H]3c3cccnc3)CC2)C1` [Example 18, N^1-((1S,4s)-4-(((1R,2S,5R)-5-(Isopropyl(methyl)amino)-2-((S)-2-oxo-3-((6-(trifluoromethyl)quinazolin-4-yl)amino)pyrrolidin-1-yl)cyclohexyl)carbamoyl)cyclohexyl)-N^5-(3-(3-((2S,3S)-1-methyl-5-oxo-2-(pyridin-3-yl)pyrrolidine-3-carboxamido)propoxy)propyl)glutaramide]: 501 pM and 9.0895.
Turning to `CC(C)N(C)[C@@H]1CC[C@H](N2CC[C@H](Nc3ncnc4ccc(C(F)(F)F)cc34)C2=O)[C@H](NC(=O)[C@H]2CC[C@@H](NC(=O)CCOCCOCCOCCNC(=O)[C@H]3CC(=O)N(C)[C@@H]3c3cccnc3)CC2)C1` [Example 28, (2S,3S)-N-(2-(2-(2-(3-(((1S,4s)-4-(((1R,2S,5R)-5-(Isopropyl(methyl)amino)-2-((S)-2-oxo-3-((6-(trifluoromethyl)quinazolin-4-yl)amino)pyrrolidin-1-yl)cyclohexyl)carbamoyl)cyclohexyl)amino)-3-oxopropoxy)ethoxy)ethoxy)ethyl)-1-methyl-5-oxo-2-(pyridin-3-yl)pyrrolidine-3-carboxamide], the EC50 in experiment [1] was 1000 pM. In addition, the “pKd of Antibody” value in experiment [2] is 9.273.
In the case of `CC(C)N(C)[C@@H]1CC[C@H](N2CC[C@H](Nc3ncnc4ccc(C(F)(F)F)cc34)C2=O)[C@H](NC(=O)CCOCCOCCOCCOCCOCCNC(=O)[C@H]2CC(=O)N(C)[C@@H]2c2cccnc2)C1` [Example 40, (2S,3S)-N-(18-(((1R,2S,5R)-5-(Isopropyl(methyl)amino)-2-((S)-2-oxo-3-((6-(trifluoromethyl)quinazolin-4-yl)amino)pyrrolidin-1-yl)cyclohexyl)amino)-18-oxo-3,6,9,12,15-pentaoxaoctadecyl)-1-methyl-5-oxo-2-(pyridin-3-yl)pyrrolidine-3-carboxamide], the EC50 in experiment [1] is 5010 pM. Moreover, in experiment [2], the “pKd of Antibody” value stood at 9.4525.
Turning to `CC(C)N(C)[C@@H]1CC[C@H](N2CC[C@H](Nc3ncnc4ccc(C(F)(F)F)cc34)C2=O)[C@H](NC(=O)CCOCCNC(=O)COCCNC(=O)COCCNC(=O)[C@H]2CC(=O)N(C)[C@@H]2c2cccnc2)C1` [Example 102, (2S,3S)-N-(18-(((1R,2S,5R)-5-(Isopropyl(methyl)amino)-2-((S)-2-oxo-3-((6-(trifluoromethyl)quinazolin-4-yl)amino)pyrrolidin-1-yl)cyclohexyl)amino)-5,11,18-trioxo-3,9,15-trioxa-6,12-diazaoctadecyl)-1-methyl-5-oxo-2-(pyridin-3-yl)pyrrolidine-3-carboxamide], the EC50 in experiment [1] was 316 pM. The “pKd of Antibody” value in experiment [2] was 9.076.
Regarding `CC(C)N(C)[C@@H]1CC[C@H](N2CC[C@H](Nc3ncnc4ccc(C(F)(F)F)cc34)C2=O)[C@H](NC(=O)[C@H]2CC[C@H](C(=O)NCCCOCCCCOCCCNC(=O)[C@H]3CC(=O)N(C)[C@@H]3c3cccnc3)CC2)C1` [Example 194, (1r,4R)-N^1-((1R,2S,5R)-5-(Isopropyl(methyl)amino)-2-((S)-2-oxo-3-((6-(trifluoromethyl)quinazolin-4-yl)amino)pyrrolidin-1-yl)cyclohexyl)-N^4-(3-(4-(3-((2S,3S)-1-methyl-5-oxo-2-(pyridin-3-yl)pyrrolidine-3-carboxamido)propoxy)butoxy)propyl)cyclohexane-1,4-dicarboxamide], in experiment [1], the EC50 was 631 pM. Besides, the “pKd of Antibody” value in experiment [2] is recorded as 9.5415.
The matching figures for `CC(C)N(C)[C@@H]1CC[C@H](N2CC[C@H](Nc3ncnc4ccc(C(F)(F)F)cc34)C2=O)[C@H](NC(=O)[C@H]2CC[C@@H](NC(=O)CCOCCOCCNC(=O)CCNC(=O)[C@H]3CC(=O)N(C)[C@@H]3c3cccnc3)CC2)C1` [Example 16, (2S,3S)-N-(3-((2-(2-(3-(((1S,4s)-4-(((1R,2S,5R)-5-(Isopropyl(methyl)amino)-2-((S)-2-oxo-3-((6-(trifluoromethyl)quinazolin-4-yl)amino)pyrrolidin-1-yl)cyclohexyl)carbamoyl)cyclohexyl)amino)-3-oxopropoxy)ethoxy)ethyl)amino)-3-oxopropyl)-1-methyl-5-oxo-2-(pyridin-3-yl)pyrrolidine-3-carboxamide]: 316 pM and 9.287.
Take `CC(C)N(C)[C@@H]1CC[C@H](N2CC[C@H](Nc3ncnc4ccc(C(F)(F)F)cc34)C2=O)[C@H](NC(=O)[C@H]2CC[C@H](NC(=O)CCOC[C@H]3CC[C@H](COCCNC(=O)[C@H]4CC(=O)N(C)[C@@H]4c4cccnc4)CC3)CC2)C1` [Example 53, (2S,3S)-N-(2-(((1R,4S)-4-((3-(((1R,4R)-4-(((1R,2S,5R)-5-(Isopropyl(methyl)amino)-2-((S)-2-oxo-3-((6-(trifluoromethyl)quinazolin-4-yl)amino)pyrrolidin-1-yl)cyclohexyl)carbamoyl)cyclohexyl)amino)-3-oxopropoxy)methyl)cyclohexyl)methoxy)ethyl)-1-methyl-5-oxo-2-(pyridin-3-yl)pyrrolidine-3-carboxamide]: in experiment [1], the EC50 is 631 pM. Moreover, the “pKd of Antibody” value in experiment [2] is listed as 9.531.
For the compound `CC(C)N(C)[C@@H]1CC[C@H](N2CC[C@H](Nc3ncnc4ccc(C(F)(F)F)cc34)C2=O)[C@H](NC(=O)[C@H]2CC[C@H](NC(=O)CCOCCOCCOCCNC(=O)[C@H]3CC(=O)N(C)[C@@H]3c3cccnc3)CC2)C1` [Example 30, (2S,3S)-N-(2-(2-(2-(3-(((1R,4r)-4-(((1R,2S,5R)-5-(Isopropyl(methyl)amino)-2-((S)-2-oxo-3-((6-(trifluoromethyl)quinazolin-4-yl)amino)pyrrolidin-1-yl)cyclohexyl)carbamoyl)cyclohexyl)amino)-3-oxopropoxy)ethoxy)ethoxy)ethyl)-1-methyl-5-oxo-2-(pyridin-3-yl)pyrrolidine-3-carboxamide], in experiment [1], the EC50 was 2510 pM. For the same compound, the “pKd of Antibody” value in experiment [2] was 9.3155.
Turning to `CC(C)N(C)[C@@H]1CC[C@H](N2CC[C@H](Nc3ncnc4ccc(C(F)(F)F)cc34)C2=O)[C@H](NC(=O)CCCN2CCC3(CCN(CCCNC(=O)[C@H]4CC(=O)N(C)[C@@H]4c4cccnc4)CC3)CC2)C1` [Example 191, (2S,3S)-N-(3-(9-(4-(((1R,2S,5R)-5-(Isopropyl(methyl)amino)-2-((S)-2-oxo-3-((6-(trifluoromethyl)quinazolin-4-yl)amino)pyrrolidin-1-yl)cyclohexyl)amino)-4-oxobutyl)-3,9-diazaspiro[5.5]undecan-3-yl)propyl)-1-methyl-5-oxo-2-(pyridin-3-yl)pyrrolidine-3-carboxamide], the EC50 in experiment [1] was 501 pM. In addition, the “pKd of Antibody” value in experiment [2] stood at 9.68.
As for `CC(C)N(C)[C@@H]1CC[C@H](N2CC[C@H](Nc3ncnc4ccc(C(F)(F)F)cc34)C2=O)[C@H](NC(=O)[C@H]2CC[C@@H](CC(=O)CCCOC[C@H]3CC[C@H](COCCNC(=O)[C@H]4CC(=O)N(C)[C@@H]4c4cccnc4)CC3)CC2)C1` [Example 60, (2S,3S)-N-(2-(((1R,4S)-4-(((5-((1S,4S)-4-(((1R,2S,5R)-5-(Isopropyl(methyl)amino)-2-((S)-2-oxo-3-((6-(trifluoromethyl)quinazolin-4-yl)amino)pyrrolidin-1-yl)cyclohexyl)carbamoyl)cyclohexyl)-4-oxopentyl)oxy)methyl)cyclohexyl)methoxy)ethyl)-1-methyl-5-oxo-2-(pyridin-3-yl)pyrrolidine-3-carboxamide], the EC50 in experiment [1] is 631 pM. Besides, in experiment [2], the “pKd of Antibody” value worked out at 9.4635.
